Data reported in PubChem BioAssay AID2060900 (Molecular Pharmacology Branch, DTP, NCI, 2025).
pIC50: −log10 of the molar value.

Tested on: 521955-158-R2-J5-PDC complex spheroids, viability
Assay: Anticancer human tumor 521955-158-R2-J5-PDC patient-derived pancreatic carcinoma cell line growth inhibition [RAS]
Conditions: for pIC50: curve of first compound; for viability, T/C: stronger effect = lower value
Source text: RAS pathway inhibitors in Combinations in Complex Spheroids
A high-throughput screen of multi-cell type tumor spheroids was designed to identify active combinations of RAS pathway inhibitors and targeted small molecules. Complex spheroids include a stromal component modeled by human endothelial cells (HUVEC) and fibroblasts modeled by human mesenchymal stem cells (MSCs). The concentration ranges selected for each drug and investigational agent were based upon clinically achievable concentrations if the clinical Cmax of the agent was known.
Compounds. The drugs and investigational agents: abemaciclib (NSC768073), cobimetinib (NSC768068), divarasib (GDC6063, NSC841802), docetaxel (NSC628503), GDC-1971 (RLY-1971, NSC841576), gemcitabine (NSC613327), inavolisib (NSC800729), ipatasertib (NSC767898), KB-0742 (NSC834161), MRTX-1133 (NSC836407), osimertinib (NSC779217), RMC-4630 (NSC839698), RMC-6236 (NSC851965), RMC-6291 (NSC852671), Ro-3306 (NSC812927), sapanisertib (NSC764658), SN-38 (NSC673596), staurosporine (NSC755774), SY5609 (NSC837396), and tovorafenib (DAY101, NSC766906), were obtained from the National Cancer Institute (NCI) Developmental Therapeutics Program Chemical Repository. The FDA-approved anticancer drug set is available from the NCI Developmental Therapeutics Program. […] The stock solutions were prepared in dimethyl sulfoxide (DMSO, Sigma-Aldrich, St. Louis, MO, cat. D2650) at 800-fold the tested concentration and stored at -70 degrees C prior to their use. All drugs and investigational agents were tested over a range starting from a high concentration at or near the clinical Cmax and decreasing in half-log increments. If the clinical Cmax for an agent had not been determined, the highest concentration tested was 10 microM.
Cell Culture. All cells were maintained in an incubator at 37 degrees C and 5% CO2 with 95% humidity. The PDC lines were cultured according to standard operating procedures established by the NCI PDMR. All PDCs were thawed and cultured in Matrigel-coated flasks prepared with a working solution of 1X Ham's F-12 nutrient mix, without supplementation (Invitrogen, Waltham, MA, cat. 11765054), 100 U/mL penicillin-streptomycin (Invitrogen, cat. 15140122), and 2.5% Matrigel (Corning Inc., Corning, NY, cat. 354248) for the first three passages. The 362531-283-R-J2-PDC and 782815-120-R-J1-PDC lines were cultured in 6C/Colon 1B media, which includes advanced DMEM/F-12 (Thermo Fisher Scientific, cat. 12634028), 10 mM HEPES (Thermo Fisher Scientific, cat. 15630080), 1X GlutaMAX supplement (Thermo Fisher Scientific, cat. 35050061), 0.1 mg/mL primocin (InvivoGen, San Diego, CA, cat. ant-pm-2), 10% defined fetal bovine serum, heat inactivated (HyClone Laboratories Inc., Logan, UT, cat. SH30070.03HI), 50% L-WRN conditioned media (ATCC, cat. CRL-3276), 1.25 mM N-Acetyl-L-cysteine (Sigma-Aldrich, cat. A9165), 10 mM nicotinamide (Sigma-Aldrich, cat. N0636), 1X B-27 supplement (Thermo Fisher Scientific, cat. 17504044), 1X N-2 supplement (Thermo Fisher Scientific, cat. 17502048), 50 ng/mL human EGF (Thermo Fisher Scientific, cat. PHG0311), and 10 microM Y-27632 dihydrochloride (Tocris Bioscience, cat. 1254). The K12877-001-R-J1-PDC line was cultured in 6I media, which includes all 6C/Colon 1B media plus 10 ng/mL human FGF-10 (PeproTech, cat. 100-26), 1 ng/mL human FGF-2 (PeproTech, cat. 100-18B), 1 µM prostaglandin E2 (Tocris Bioscience, cat. 2296), […] hydrocortisone (Sigma-Aldrich, cat. H4001), and […] bovine insulin (Sigma-Aldrich, cat. I6634). The K86415-001-R-J1-PDC line was cultured in 6D media, which includes all 6C/Colon 1B media components minus the L-WRN conditioned media. The 485176-168-R4-J1-PDC was cultured in PANC media, which includes all 6C/Colon 1B media plus 100 ng/mL human FGF-10 (PeproTech, cat. 100-26), 500 nM SB-431542 (Selleckchem, cat. S1067), and 10 nM gastrin (Tocris Bioscience, cat. 3006). […]
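Note: compound exposure lasted seven days before the viability read.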
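Throughout, for viability, T/C: spheroids also contain HUVEC endothelial cells and mesenchymal stem cells as stroma.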

With CCc1c2c(nc3ccc(O)cc13)-c1cc3c(c(=O)n1C2)COC(=O)[C@]3(O)CC + C=CC(=O)N1CCN(c2nc(OCC3CCCN3C)nc3c(F)c(-c4nc(N)cc(C)c4C(F)(F)F)c(Cl)cc23)C(C)C1 the pIC50 (second compound 0.00316 µM) was 8.64, the pIC50 (second compound 0.01 µM) was 8.63 and the pIC50 (second compound 0.0316 µM) was 8.46. The pIC50 (second compound 0.1 µM) was 8.60, the pIC50 (second compound 0.316 µM) was 8.66 and the pIC50 (second compound 1 µM) was 8.55. For the same compound, the viability, T/C (second compound 0.00316 µM, first compound 0.000949 µM) was 82.8%, the viability, T/C (second compound 0.00316 µM, first compound 0.003 µM) was 39.5% and the viability, T/C (second compound 0.00316 µM, first compound 0.00949 µM) was 20.3%. The viability, T/C (second compound 0.00316 µM, first compound 0.03 µM) was 7.87%, the viability, T/C (second compound 0.00316 µM, first compound 0.0949 µM) was 6.75% and the viability, T/C (second compound 0.00316 µM, first compound 0.3 µM) was 6.61%. It also gave a viability, T/C (second compound 0.01 µM, first compound 0.000949 µM) of 68.7%, a viability, T/C (second compound 0.01 µM, first compound 0.003 µM) of 45.3% and a viability, T/C (second compound 0.01 µM, first compound 0.00949 µM) of 18.4%. It also gave a viability, T/C (second compound 0.01 µM, first compound 0.03 µM) of 8.97%, a viability, T/C (second compound 0.01 µM, first compound 0.0949 µM) of 8.82% and a viability, T/C (second compound 0.01 µM, first compound 0.3 µM) of 4.69%. It also gave a viability, T/C (second compound 0.0316 µM, first compound 0.000949 µM) of 72.5%, a viability, T/C (second compound 0.0316 µM, first compound 0.003 µM) of 55.2% and a viability, T/C (second compound 0.0316 µM, first compound 0.00949 µM) of 13.7%. The viability, T/C (second compound 0.0316 µM, first compound 0.03 µM) was 11.2%, the viability, T/C (second compound 0.0316 µM, first compound 0.0949 µM) was 8.98% and the viability, T/C (second compound 0.0316 µM, first compound 0.3 µM) was 5.11%. The viability, T/C (second compound 0.1 µM, first compound 0.000949 µM) was 63%, the viability, T/C (second compound 0.1 µM, first compound 0.003 µM) was 47.7% and the viability, T/C (second compound 0.1 µM, first compound 0.00949 µM) was 15.2%. For the same compound, the viability, T/C (second compound 0.1 µM, first compound 0.03 µM) was 9.23%, the viability, T/C (second compound 0.1 µM, first compound 0.0949 µM) was 6.92% and the viability, T/C (second compound 0.1 µM, first compound 0.3 µM) was 5.21%. The viability, T/C (second compound 0.316 µM, first compound 0.000949 µM) was 83.2%, the viability, T/C (second compound 0.316 µM, first compound 0.003 µM) was 38% and the viability, T/C (second compound 0.316 µM, first compound 0.00949 µM) was 13%. The viability, T/C (second compound 0.316 µM, first compound 0.03 µM) was 6.67%, the viability, T/C (second compound 0.316 µM, first compound 0.0949 µM) was 7.68% and the viability, T/C (second compound 0.316 µM, first compound 0.3 µM) was 4.95%. For the same compound, the viability, T/C (second compound 1 µM, first compound 0.000949 µM) was 84.2%, the viability, T/C (second compound 1 µM, first compound 0.003 µM) was 48.2% and the viability, T/C (second compound 1 µM, first compound 0.00949 µM) was 13.4%. The viability, T/C (second compound 1 µM, first compound 0.03 µM) was 9.97%, the viability, T/C (second compound 1 µM, first compound 0.0949 µM) was 6.39% and the viability, T/C (second compound 1 µM, first compound 0.3 µM) was 4.12%.

Work on CCN1CCN(Cc2ccc(Nc3ncc(F)c(-c4cc(F)c5nc(C)n(C(C)C)c5c4)n3)nc2)CC1 + CCn1c(-c2cc(N3CCN(C)CC3)cnc2C(C)OC)c2c3cc(ccc31)-c1csc(n1)CC(NC(=O)C1CC1C)C(=O)N1CCCC(N1)C(=O)OCC(C)(C)C2 yielded a pIC50 (second compound 0.000949 µM) of over 8.50, a pIC50 (second compound 0.003 µM) of over 8.50 and a pIC50 (second compound 0.00949 µM) of over 8.50. The pIC50 (second compound 0.03 µM) was over 8.50, the pIC50 (second compound 0.0949 µM) was over 8.50 and the pIC50 (second compound 0.3 µM) was over 8.50. For the same compound, the viability, T/C (second compound 0.000949 µM, first compound 0.00316 µM) was 43.2%, the viability, T/C (second compound 0.000949 µM, first compound 0.01 µM) was 39.4% and the viability, T/C (second compound 0.000949 µM, first compound 0.0316 µM) was 39.4%. For the same compound, the viability, T/C (second compound 0.000949 µM, first compound 0.1 µM) was 31.6%, the viability, T/C (second compound 0.000949 µM, first compound 0.316 µM) was 43.6% and the viability, T/C (second compound 0.000949 µM, first compound 1 µM) was 47.6%. For the same compound, the viability, T/C (second compound 0.003 µM, first compound 0.00316 µM) was 39.4%, the viability, T/C (second compound 0.003 µM, first compound 0.01 µM) was 40.9% and the viability, T/C (second compound 0.003 µM, first compound 0.0316 µM) was 41.2%. The viability, T/C (second compound 0.003 µM, first compound 0.1 µM) was 39.2%, the viability, T/C (second compound 0.003 µM, first compound 0.316 µM) was 37.9% and the viability, T/C (second compound 0.003 µM, first compound 1 µM) was 36.6%. The viability, T/C (second compound 0.00949 µM, first compound 0.00316 µM) was 35.8%, the viability, T/C (second compound 0.00949 µM, first compound 0.01 µM) was 30.1% and the viability, T/C (second compound 0.00949 µM, first compound 0.0316 µM) was 28.4%. It also gave a viability, T/C (second compound 0.00949 µM, first compound 0.1 µM) of 22.8%, a viability, T/C (second compound 0.00949 µM, first compound 0.316 µM) of 27.5% and a viability, T/C (second compound 0.00949 µM, first compound 1 µM) of 25.9%. It also gave a viability, T/C (second compound 0.03 µM, first compound 0.00316 µM) of 23%, a viability, T/C (second compound 0.03 µM, first compound 0.01 µM) of 18.4% and a viability, T/C (second compound 0.03 µM, first compound 0.0316 µM) of 17%. For the same compound, the viability, T/C (second compound 0.03 µM, first compound 0.1 µM) was 16.8%, the viability, T/C (second compound 0.03 µM, first compound 0.316 µM) was 16.4% and the viability, T/C (second compound 0.03 µM, first compound 1 µM) was 16.5%. It also gave a viability, T/C (second compound 0.0949 µM, first compound 0.00316 µM) of 12.1%, a viability, T/C (second compound 0.0949 µM, first compound 0.01 µM) of 11% and a viability, T/C (second compound 0.0949 µM, first compound 0.0316 µM) of 11.4%. It also gave a viability, T/C (second compound 0.0949 µM, first compound 0.1 µM) of 8.7%, a viability, T/C (second compound 0.0949 µM, first compound 0.316 µM) of 13.6% and a viability, T/C (second compound 0.0949 µM, first compound 1 µM) of 14.8%. For the same compound, the viability, T/C (second compound 0.3 µM, first compound 0.00316 µM) was 9.79%, the viability, T/C (second compound 0.3 µM, first compound 0.01 µM) was 8.72% and the viability, T/C (second compound 0.3 µM, first compound 0.0316 µM) was 10.5%. The viability, T/C (second compound 0.3 µM, first compound 0.1 µM) was 10%, the viability, T/C (second compound 0.3 µM, first compound 0.316 µM) was 13.9% and the viability, T/C (second compound 0.3 µM, first compound 1 µM) was 13.1%.
